Data from ChEMBL document CHEMBL1153799, “Synthesis of sialic acid derivatives having a C=C double bond substituted at the C-5 position and their glycopolymers” (Bioorg Med Chem Lett, 2009).
Activity calls are given as the source filed them.

What was measured:
Format in all cases: functional, organism-based
H3N2 subtype = assay: Inhibition of human Influenza virus A/Aichi/2/68(H3N2)-mediated hemagglutinination of erythrocytes; settings: A/Aichi/2/1968(H3N2)
Influenza A virus [1] = assay: Inhibition of human Influenza virus A/PR/8/34 (H1N1)-mediated hemagglutinination of erythrocytes; settings: A/Puerto Rico/8/1934(H1N1)
Influenza A virus [2] = assay: Inhibition of duck Influenza A virus A/DK/HK/313/78(H5N3)-mediated hemagglutinination of erythrocytes

Measured: Activity

C=CC(=O)NCCCCCC(=O)N[C@H]1[C@H]([C@H](O)[C@H](O)CO)O[C@](SCCCCCCCCCCCC)(C(=O)O)C[C@@H]1O
active: all assays above

C=CC(=O)NCC(=O)N[C@H]1[C@H]([C@H](O)[C@H](O)CO)O[C@](SCCCCCCCCCCCC)(C(=O)O)C[C@@H]1O
active: all assays above
